Source: the NIST ThermoML archive (doi:10.1021/je060415l)

Settings: Liquid, expansion method

CO [methanol]
Settings	isothermal compressibility
263.17 K, 19270 kPa	8.26e-07 1/kPa
263.17 K, 22000 kPa	8.07e-07 1/kPa
263.17 K, 24860 kPa	7.88e-07 1/kPa
263.17 K, 27740 kPa	7.73e-07 1/kPa
263.17 K, 30600 kPa	7.56e-07 1/kPa
263.17 K, 33550 kPa	7.41e-07 1/kPa
263.17 K, 36560 kPa	7.26e-07 1/kPa
263.17 K, 39590 kPa	7.11e-07 1/kPa
263.17 K, 42670 kPa	6.97e-07 1/kPa
263.17 K, 45790 kPa	6.84e-07 1/kPa
263.17 K, 48960 kPa	6.72e-07 1/kPa
263.17 K, 52170 kPa	6.58e-07 1/kPa
263.17 K, 55430 kPa	6.46e-07 1/kPa
263.17 K, 58830 kPa	6.32e-07 1/kPa
263.17 K, 62280 kPa	6.21e-07 1/kPa
263.17 K, 65720 kPa	6.12e-07 1/kPa
263.17 K, 69340 kPa	5.97e-07 1/kPa
263.17 K, 73030 kPa	5.88e-07 1/kPa
263.17 K, 76640 kPa	5.78e-07 1/kPa
263.17 K, 80310 kPa	5.68e-07 1/kPa
263.17 K, 84120 kPa	5.57e-07 1/kPa
263.17 K, 88070 kPa	5.47e-07 1/kPa
263.17 K, 92050 kPa	5.52e-07 1/kPa
263.17 K, 95980 kPa	5.33e-07 1/kPa
263.17 K, 100060 kPa	5.22e-07 1/kPa
273.17 K, 1010 kPa	1.05e-06 1/kPa
273.17 K, 3000 kPa	1.02e-06 1/kPa
273.17 K, 5050 kPa	1e-06 1/kPa
273.17 K, 7100 kPa	9.82e-07 1/kPa
273.17 K, 9170 kPa	9.62e-07 1/kPa
273.17 K, 11220 kPa	9.47e-07 1/kPa
273.17 K, 13320 kPa	9.25e-07 1/kPa
273.17 K, 15430 kPa	9.12e-07 1/kPa
273.17 K, 17510 kPa	8.9e-07 1/kPa
273.17 K, 19750 kPa	8.72e-07 1/kPa
273.17 K, 22140 kPa	8.56e-07 1/kPa
273.17 K, 24880 kPa	8.26e-07 1/kPa
273.17 K, 27900 kPa	8.1e-07 1/kPa
273.17 K, 30870 kPa	7.91e-07 1/kPa
273.17 K, 38720 kPa	7.29e-07 1/kPa
273.17 K, 42290 kPa	7.21e-07 1/kPa
273.17 K, 45710 kPa	7.11e-07 1/kPa
273.17 K, 49180 kPa	6.92e-07 1/kPa
273.17 K, 52690 kPa	6.79e-07 1/kPa
273.17 K, 55980 kPa	6.73e-07 1/kPa
273.17 K, 59210 kPa	6.57e-07 1/kPa
273.17 K, 62510 kPa	6.46e-07 1/kPa
273.17 K, 65790 kPa	6.35e-07 1/kPa
273.17 K, 69160 kPa	6.24e-07 1/kPa
273.17 K, 72680 kPa	6.19e-07 1/kPa
273.17 K, 76170 kPa	6.02e-07 1/kPa
273.17 K, 79630 kPa	5.9e-07 1/kPa
273.17 K, 83150 kPa	5.82e-07 1/kPa
273.17 K, 86550 kPa	5.73e-07 1/kPa
273.17 K, 90030 kPa	5.63e-07 1/kPa
273.17 K, 94000 kPa	5.47e-07 1/kPa
273.17 K, 98210 kPa	5.44e-07 1/kPa
298.16 K, 740 kPa	1.27e-06 1/kPa
298.16 K, 2360 kPa	1.22e-06 1/kPa
298.16 K, 4230 kPa	1.19e-06 1/kPa
298.16 K, 6090 kPa	1.17e-06 1/kPa
298.16 K, 7970 kPa	1.14e-06 1/kPa
298.16 K, 9920 kPa	1.12e-06 1/kPa
298.16 K, 11950 kPa	1.09e-06 1/kPa
298.16 K, 14020 kPa	1.06e-06 1/kPa
298.16 K, 16080 kPa	1.04e-06 1/kPa
298.16 K, 18190 kPa	1.02e-06 1/kPa
298.16 K, 20320 kPa	1e-06 1/kPa
298.16 K, 22490 kPa	9.82e-07 1/kPa
298.16 K, 24710 kPa	9.59e-07 1/kPa
298.16 K, 26990 kPa	9.37e-07 1/kPa
298.16 K, 29290 kPa	9.23e-07 1/kPa
298.16 K, 31700 kPa	8.99e-07 1/kPa
298.16 K, 34090 kPa	8.85e-07 1/kPa
298.16 K, 36550 kPa	8.65e-07 1/kPa
298.16 K, 39120 kPa	8.47e-07 1/kPa
298.16 K, 41740 kPa	8.3e-07 1/kPa
298.16 K, 44450 kPa	8.14e-07 1/kPa
298.16 K, 47180 kPa	7.96e-07 1/kPa
298.16 K, 49870 kPa	7.83e-07 1/kPa
298.16 K, 52590 kPa	7.68e-07 1/kPa
298.16 K, 55320 kPa	7.57e-07 1/kPa
298.16 K, 58040 kPa	7.43e-07 1/kPa
298.16 K, 60870 kPa	7.28e-07 1/kPa
298.16 K, 63900 kPa	7.14e-07 1/kPa
298.16 K, 66990 kPa	7.03e-07 1/kPa
298.16 K, 69960 kPa	6.89e-07 1/kPa
298.16 K, 73410 kPa	6.65e-07 1/kPa
298.16 K, 77320 kPa	6.55e-07 1/kPa
298.16 K, 80990 kPa	6.49e-07 1/kPa
298.16 K, 84450 kPa	6.37e-07 1/kPa
298.16 K, 87890 kPa	6.41e-07 1/kPa
298.16 K, 91290 kPa	6.17e-07 1/kPa
298.16 K, 94830 kPa	6.05e-07 1/kPa
298.16 K, 98440 kPa	6.02e-07 1/kPa
